What all share (type): cell-based
Assay [1] relates to T. gondii tachyzoites expressing TgCDPK1 G128M. As to the kind of experiment: Proliferation EC50, host fibroblast nuclei count, TgCDPK1 G128M mutant. The settings on record: for EC50 for G128M parasites higher compared to the parental strain: TgCDPK1 G128M versus parental; for EC50: Toxoplasma gondii, Fibroblast, read-out: T. gondii EC50 (±SD) CDPK1 G128M. The procedure: (§1) Human Foreskin Fibroblasts (HFF) were cultured in DMEM, with D-glucose (4.5 g/L), L-glutamine, and sodium pyruvate (110 mg/L) (Gibco) that were further supplemented with 10% Fetal Clone 1 serum (FCS)(HyClone), 50 U/mL penicillin (Gibco), […] streptomycin (Gibco), and 1× GlutaMax (Gibco). HFF cells were cultured in T25 flasks (Corning) in a humidified incubator at 37 °C and 5% CO2. For culture, media was replaced with DMEM, as described above, with 1% FCS. Mutant strains were created as described in.
(§2) Presence of desired mutations in parasite lines, TgCDPK1^G128M, TgCDPK1^G128M + TgMAPKL1^L162Q and […] was verified through sequencing. Compounds were dissolved in DMSO and serially diluted 4-fold across the first 10 wells of a 96 well plate, with the highest drug concentration in the first column being 25 μM. The strain of was then added to the first 11 columns of the 96-well plate at a density of 4000 parasites per well. The 11th column contained no compounds, and the 12th column contained no parasites and no compound. After 5 days of incubation at 37 °C and 5% CO2, cells were washed with PBS and fixed with 4% PFA in PBS (Thermo Fisher Scientific, Waltham, MA, USA). After fixing, cells were washed three times with PBS and stained with 300 nM DAPI in PBS before being washed again three times with PBS.
(§3) Images were acquired in an ImageXpress Pico Automated Cell Imaging System (Molecular Devices, San Jose, CA, USA) with a 4× objective using UV fluorescence. Following imaging, ImageXpress software was used to count objects with a fluorescence intensity ≥8 and a size of 12–30 μm, giving a total count of host cell nuclei for each well. EC50 were determined based on the number of remaining fibroblast nuclei using a nonlinear regression analysis with GraphPad Prism software version 10.0.0 for Windows, GraphPad Software, Boston, Massachusetts USA. Each compound was tested in ≥3 experiments in quadruplicate rows.

Assay [2] has as its system T. gondii tachyzoites expressing TgPKG T761Q. Put plainly: Proliferation EC50, host fibroblast nuclei count, TgPKG T761Q mutant. The settings on record: for EC50: Toxoplasma gondii, Fibroblast. Here is the method:
as §1, §2, §3

The test system of assay [3] is T. gondii tachyzoites expressing TgCDPK1 G128M; TgMAPKL-1 L162Q. As to the kind of experiment: Proliferation EC50, host fibroblast nuclei count, double mutant. The settings on record: for EC50: Toxoplasma gondii, Fibroblast, read-out: T. gondii EC50 (±SD) CDPK1 G128M, MAPKL1 L162Q. Here is the method:
as §1, §2, §3

Where [4] appears, read: read-out: T. gondii EC50 (±SD) PKGT761Q.

Read-outs that look alike come from different tables or passages of the source.

By EC50 is commonly meant the concentration at which the effect is half-maximal. Turning to `O=C(c1nccs1)N1CC[C@@H](Nc2nccc(-n3cc(C4CC4)nc3-c3ccccc3)n2)C1` [(R)-RY-1-165], in assay [1], the “EC50 for G128M parasites higher compared to the parental strain” value came out at 1.7 fold. Moreover, the EC50 turned out to be 1530 nM in assay [1], 390 nM in assay [2] (setting [4]) and 1570 nM in assay [3]. In addition, in assay [2] (in 2 experiments), the “change in relative EC50, T761Q parasites versus parental controls” value is “no change”. Moreover, the “increase in EC50 against T761Q parasites relative to parental controls” value in assay [2] (in 3 experiments) is reported as 1.8–2.8 fold.
For `O=C(c1nccs1)N1CC[C@@H](Nc2nccc(-n3cc(C4CC4)nc3-c3cccc(Cl)c3)n2)C1` [(R)-RY-1-185], the “EC50 for G128M parasites higher compared to the parental strain” value in assay [1] is reported as 1.8 fold. Besides, the half-maximal effective concentration (EC50) amounted to 300 nM in assay [1], 170 nM in assay [2] (setting [4]), 161 nM in assay [2] (read-out: average EC50 against the T761Q mutants) and 1210 nM in assay [3]. In assay [2] (average), the “increase in EC50, T761Q mutants versus parental” value is on record as 1.7 fold. Further, in assay [3], the “increase in EC50 against double mutant TgCDPK1 G128M; TgMAPKL-1 L162Q versus parental control” value was found to be 9 fold.

The values above are taken from PMC12333026, “Versatile Imidazole Scaffold with Potent Activity against Multiple Apicomplexan Parasites” (ACS Infectious Diseases, 2025).
